Results on 12 compounds are retold here after patent publication US9642825B2, “Bio-available N-acetyl creatine species and compositions thereof” (4141 HOLDINGS, LLC, priority 2014, dated 2017).

Data set [1] is described as follows: Dissolution time of 1 gram in distilled water at room temperature. To be noted: 75 RPM. Type of data set: physicochemical.
In data set [2] the test system is human fibroblasts. To be noted: cited from earlier work.
A short description of data set [3]: Solubility in water. Type of data set: physicochemical.
Data set [4] can be described thus: Dissolution time of 1 gram in 0.1N HCl (pH 1.2). The data set is classed as physicochemical. The settings on record: 1.000 Gram in 900 ml 0.1N HCl in Water, pH = 1.2, 73 C., 75 RPM.
The nature of data set [5]: Chemical stability in aqueous media (conversion to creatinine). The data set is classed as physicochemical. The procedure:
As may be seen, 1 gram of N-acetyl creatine dissolves faster than other creatine derivatives, except creatine ethyl ester HCl, designated Creatine EE Hcl—(High Creatine Conversion) in FIG. 1. However, this shorter dissolution time may be deceiving. […] Instead, Creatine ethyl ester HCl decomposes into creatinine in a matter of 2 to 3 minutes. Creatinine is an excretory byproduct produced from the breakdown of creatine phosphate and offers none of the numerous benefits of creatine. In other words, Creatine ethyl ester HCl is unstable and its rapid conversion to creatinine makes it ineffective in delivering bioavailable creatine to the body.

Data set [6] relates to myostatin. The settings on record: cited from earlier work.
The test system of data set [7] is muscle strength and weightlifting performance. The settings on record: cited from earlier work.
The test system of data set [8] is person with myasthenia gravis. The settings on record: five grams daily, resistance training 3 times per week for 15 weeks; cited from earlier work.
[9] abbreviates: 1.000 Gram in 900 ml Distilled Water, creatine types.
The mark [10] stands for this setting: creatine supplementation plus resistance training.
Where [11] appears, read: versus placebo ingestion during resistance training.
[12] abbreviates: 1.000 g in 900 ml Distilled Water, L-leucine versus N-acetyl L-leucine.

In the case of `CN(CC(=O)O)C(=N)N.O=[N+]([O-])O` [Creatine Nitrate], in data set [1] (setting [9]), the “Time (Minutes) to dissolve” value worked out at 9.12 min.

For the compound `CN(CC(=O)O)C(=N)N.O=C(O)CC(O)(CC(=O)O)C(=O)O` [Creatine Citrate], the “Time (Minutes) to dissolve” value in data set [1] (setting [9]) was 10.10 min.

For `CCCCCCCCCCCCOC(=O)CN(C)C(=N)N` [dodecyl creatine ester], the “increase compared with the endogenous creatine content” value in data set [2] was 20 fold.

Consider `CC(=O)NC(=N)N(C)CC(=O)O` [N-acetyl creatine], for which the “Time (Minutes) to dissolve” value in data set [1] (setting [9]) came to 3.70 min; in data set [4], 2.17 min. Further, in data set [3], the “times more soluble than the parent compound creatine” value is on record as 30 times. Also, the “increase of solubility with respect to creatine monohydrate” value in data set [3] (water) was 30 fold. In addition, in data set [3] (water), the solubility in water came out at 400 grams/1 liter. In addition, the “stability in solution (in words)” value in data set [5] was “remains stable in solution”.

As to Creatine Taurinate, the “Time (Minutes) to dissolve” value in data set [1] (setting [9]) turned out to be 15.85 min; in data set [4], 10.30 min.

Take `CN(CC(=O)O)C(=N)N` [creatine, 2-(carbamimidoyl-methyl-amino) acetic acid]: the “myostatin blocked in muscle” value in data set [6] is 60%. In data set [7] (setting [10]), the “average increase in muscle strength” value was 20% and the “average increase in weightlifting performance (maximal repetitions at a given percent of maximal strength)” value is reported as 26%. For the same compound, in data set [7] (setting [11]), the “average increase in muscle strength, greater than following placebo” value was 8% and the “average increase in weightlifting performance, greater than following placebo” value is on record as 14%. In data set [8], the improved peak strength entry is on record as “up to 37%”, the “increase in body weight” value is recorded as 7% and the “increase in fat free mass” value is on record as 4%.

Take `CC(C)C[C@H](NC(=O)CN(C)C(=N)N)C(=O)O` [Creatyl-L-Leucine]: the “Time (Minutes) to dissolve” value in data set [1] (setting [9]) was determined as 9.05 min; in data set [4], 3.08 min.

Turning to `CCOC(=O)CN(C)C(=N)N.Cl` [Creatine ethyl ester HCl], the “Time (Minutes) to dissolve” value in data set [1] (setting [9]) was 1.68 min; in data set [4], 0.95 min. For the same compound, the “stability in solution (in words)” value in data set [5] is on record as “unstable”.

As for `CN(CC(=O)N[C@@H](CCC(N)=O)C(=O)O)C(=N)N` [Creatyl-L-Glutamine], the “Time (Minutes) to dissolve” value in data set [1] (setting [9]) is 25.02 min; in data set [4], 6.33 min.

Turning to `CC(=O)N[C@@H](CC(C)C)C(=O)O` [N-Acetyl Leucine, N-acetyl L-leucine], the “Time (Minutes) to dissolve” value in data set [1] (setting [12]) was found to be 120.17 min. For the same compound, the “solubility in an aqueous medium (in words)” value in data set [3] (aqueous medium) is reported as “extremely poor solubility”.

Take `CN(CC(=O)O)C(=N)N.O` [Creatine Monohydrate]: the “Time (Minutes) to dissolve” value in data set [1] (setting [9]) is 14.42 min.

As for `CC(C)C[C@H](N)C(=O)O` [Leucine, L-leucine], the “Time (Minutes) to dissolve” value in data set [1] (setting [12]) turned out to be 12.82 min. Further, in data set [3] (aqueous medium), the “solubility in an aqueous medium (in words)” value is “very low water solubility” and the “solubility of free leucine relative to N-acetyl-Leucine” value is “ten times greater”.
